Where two headings read alike, the source gives them in different places.
How the values were obtained:
Format in all cases: cell-based
[1] = biological target: T1, human T-type calcium channels hCav3.2 (Homo sapiens, UniProt O95180); assay: whole-cell patch-clamp, calcium peak currents in stably transfected HEK 293 cells; design: blocked calcium peak currents by: unit not given here; settings: for Relative current amplitude (%): hCav3.2 in HEK 293 cells; for IC50: two site binding model
T1 construct: expressed in transfected cells; host or cells: HEK 293 cells (European Collection of Animal Cell Culture)
Method: A study was carried out to determine the effect of eslicarbazepine.
Cells were stably transfected with hCav3.2 cDNA.
Calcium inward currents were measured upon depolarization of the cell membrane to −25 mV for 50 ms from a holding potential of −80 mV. This voltage protocol was run at intervals of 10 s until stabilization of evoked hCav3.2 currents. […] Vehicle was either bath solution or 0.2% DMSO.
Analysis of variance (ANOVA) with post test multisample comparison (Dunnett) was conducted with GraphPad Prism 4 Software. IC50 were calculated with the equation: […]

α1β2γ2 GABA receptors = biological target: T2, α1β2γ2 GABA receptors (Homo sapiens, UniProt P14867+P18507+P47870); assay: whole-cell patch-clamp, sub-maximal GABA inward currents in stably transfected Ltk cells; settings: Table 1
T2 construct: host or cells: Ltk cells, expression induced with dexamethasone
Method: (§1) Carbamazepine (CBZ) aggravates absence seizures in ‘generalized absence epilepsy rats from. Strasbourg’. One putative mechanism for the aggravation is through its reported potentiation of GABAA currents. A study was carried out to determine the effect of eslicarbazepine, R-licarbazepine and carbamazepine on sub-maximal GABA currents in Ltk cells stably expressing α1β2γ2, α2β2γ2, α3β2γ2 or α5β2γ2 GABA-receptors. The whole-cell patch-clamp technique was used to investigate the effects of the test compounds on GABAA receptors.
(§2) Used Ltk cells were stably transfected with recombinant GABAA cDNAs: α1β2γ2, α2β2γ2, α3β2γ2 or α5β2γ2 (B'SYS GmbH, Switzerland). […] For the electrophysiological experiments cells were cultivated, at a density that enabled single cells to be measured, in medium without antibiotics or antimycotics. Cells were tested 24-48 hours following induction of transgene expression with dexamethasone.
(§3) The whole-cell patch clamp recordings from transfected Ltk cells (voltage-clamped at a holding potential of −80 mV) were made using a EPC-7, HEKA Electronics amplifier. GABA inward-currents were measured upon application of 1 or 2 μM GABA to patch-clamped cells (at an EC5).
(§4) Analysis of Variance (ANOVA) with post test multisample comparison (Dunnett) was conducted with GraphPad Prism 4 Software.

α2β2γ2 GABA receptors = biological target: T3, α2β2γ2 GABA receptors (Homo sapiens, UniProt P18507+P47869+P47870); assay: as above; settings: Table 1
T3 construct: host or cells: Ltk cells, expression induced with dexamethasone
Method: as §1, §2, §3, §4

α3β2γ2 GABA receptors = biological target: T4, α3β2γ2 GABA receptors (Homo sapiens, UniProt P18507+P34903+P47870); assay: as above; settings: Table 1
T4 construct: host or cells: Ltk cells, expression induced with dexamethasone
Method: as §1, §2, §3, §4

α5β2γ2 GABA receptors = biological target: T5, α5β2γ2 GABA receptors (Homo sapiens, UniProt P18507+P31644+P47870); assay: as above; settings: Table 1
T5 construct: host or cells: Ltk cells, expression induced with dexamethasone
Method: as §1, §2, §3, §4

[2] = tested on: α1β2γ2, α2β2γ2, α3β2γ2 or α5β2γ2 GABA-receptors; assay: overall effect on sub-maximal GABA currents (summary of Example 1); settings: Ltk cells, all four receptor subtypes
Method: as §1
Used Ltk cells were stably transfected with recombinant GABAA cDNAs: α1β2γ2, α2β2γ2, α3β2γ2 or α5β2γ2 (B'SYS GmbH, Switzerland). Cells were maintained in a humidified atmosphere (95% relative humidity) with 5% CO2 and were grown in D-MEM/F-12 (1×, liquid, with GlutaMax 1) supplemented with 9% foetal bovine serum and 0.9% Penicillin/Streptomycin solution (Gibco BRL). For the electrophysiological experiments cells were cultivated, at a density that enabled single cells to be measured, in medium without antibiotics or antimycotics. Cells were tested 24-48 hours following induction of transgene expression with dexamethasone.
Cells were continuously perfused with bath solution (NaCl 137 mM, KCl 4 mM, CaCl2 1.8 mM, MgCl2 1 mM, D-Glucose 10 mM HEPES 10 mM, pH 7.4). […] GABA inward-currents were measured upon application of 1 or 2 μM GABA to patch-clamped cells (at an EC5). […]

[3] = 50 μM with GABA at EC5, Ltk cells
[4] = 100 μM with GABA at EC5, Ltk cells
[5] = 250 μM with GABA at EC5, Ltk cells
[6] = 500 μM with GABA at EC5, Ltk cells

T1 sequence (O95180 whole entry): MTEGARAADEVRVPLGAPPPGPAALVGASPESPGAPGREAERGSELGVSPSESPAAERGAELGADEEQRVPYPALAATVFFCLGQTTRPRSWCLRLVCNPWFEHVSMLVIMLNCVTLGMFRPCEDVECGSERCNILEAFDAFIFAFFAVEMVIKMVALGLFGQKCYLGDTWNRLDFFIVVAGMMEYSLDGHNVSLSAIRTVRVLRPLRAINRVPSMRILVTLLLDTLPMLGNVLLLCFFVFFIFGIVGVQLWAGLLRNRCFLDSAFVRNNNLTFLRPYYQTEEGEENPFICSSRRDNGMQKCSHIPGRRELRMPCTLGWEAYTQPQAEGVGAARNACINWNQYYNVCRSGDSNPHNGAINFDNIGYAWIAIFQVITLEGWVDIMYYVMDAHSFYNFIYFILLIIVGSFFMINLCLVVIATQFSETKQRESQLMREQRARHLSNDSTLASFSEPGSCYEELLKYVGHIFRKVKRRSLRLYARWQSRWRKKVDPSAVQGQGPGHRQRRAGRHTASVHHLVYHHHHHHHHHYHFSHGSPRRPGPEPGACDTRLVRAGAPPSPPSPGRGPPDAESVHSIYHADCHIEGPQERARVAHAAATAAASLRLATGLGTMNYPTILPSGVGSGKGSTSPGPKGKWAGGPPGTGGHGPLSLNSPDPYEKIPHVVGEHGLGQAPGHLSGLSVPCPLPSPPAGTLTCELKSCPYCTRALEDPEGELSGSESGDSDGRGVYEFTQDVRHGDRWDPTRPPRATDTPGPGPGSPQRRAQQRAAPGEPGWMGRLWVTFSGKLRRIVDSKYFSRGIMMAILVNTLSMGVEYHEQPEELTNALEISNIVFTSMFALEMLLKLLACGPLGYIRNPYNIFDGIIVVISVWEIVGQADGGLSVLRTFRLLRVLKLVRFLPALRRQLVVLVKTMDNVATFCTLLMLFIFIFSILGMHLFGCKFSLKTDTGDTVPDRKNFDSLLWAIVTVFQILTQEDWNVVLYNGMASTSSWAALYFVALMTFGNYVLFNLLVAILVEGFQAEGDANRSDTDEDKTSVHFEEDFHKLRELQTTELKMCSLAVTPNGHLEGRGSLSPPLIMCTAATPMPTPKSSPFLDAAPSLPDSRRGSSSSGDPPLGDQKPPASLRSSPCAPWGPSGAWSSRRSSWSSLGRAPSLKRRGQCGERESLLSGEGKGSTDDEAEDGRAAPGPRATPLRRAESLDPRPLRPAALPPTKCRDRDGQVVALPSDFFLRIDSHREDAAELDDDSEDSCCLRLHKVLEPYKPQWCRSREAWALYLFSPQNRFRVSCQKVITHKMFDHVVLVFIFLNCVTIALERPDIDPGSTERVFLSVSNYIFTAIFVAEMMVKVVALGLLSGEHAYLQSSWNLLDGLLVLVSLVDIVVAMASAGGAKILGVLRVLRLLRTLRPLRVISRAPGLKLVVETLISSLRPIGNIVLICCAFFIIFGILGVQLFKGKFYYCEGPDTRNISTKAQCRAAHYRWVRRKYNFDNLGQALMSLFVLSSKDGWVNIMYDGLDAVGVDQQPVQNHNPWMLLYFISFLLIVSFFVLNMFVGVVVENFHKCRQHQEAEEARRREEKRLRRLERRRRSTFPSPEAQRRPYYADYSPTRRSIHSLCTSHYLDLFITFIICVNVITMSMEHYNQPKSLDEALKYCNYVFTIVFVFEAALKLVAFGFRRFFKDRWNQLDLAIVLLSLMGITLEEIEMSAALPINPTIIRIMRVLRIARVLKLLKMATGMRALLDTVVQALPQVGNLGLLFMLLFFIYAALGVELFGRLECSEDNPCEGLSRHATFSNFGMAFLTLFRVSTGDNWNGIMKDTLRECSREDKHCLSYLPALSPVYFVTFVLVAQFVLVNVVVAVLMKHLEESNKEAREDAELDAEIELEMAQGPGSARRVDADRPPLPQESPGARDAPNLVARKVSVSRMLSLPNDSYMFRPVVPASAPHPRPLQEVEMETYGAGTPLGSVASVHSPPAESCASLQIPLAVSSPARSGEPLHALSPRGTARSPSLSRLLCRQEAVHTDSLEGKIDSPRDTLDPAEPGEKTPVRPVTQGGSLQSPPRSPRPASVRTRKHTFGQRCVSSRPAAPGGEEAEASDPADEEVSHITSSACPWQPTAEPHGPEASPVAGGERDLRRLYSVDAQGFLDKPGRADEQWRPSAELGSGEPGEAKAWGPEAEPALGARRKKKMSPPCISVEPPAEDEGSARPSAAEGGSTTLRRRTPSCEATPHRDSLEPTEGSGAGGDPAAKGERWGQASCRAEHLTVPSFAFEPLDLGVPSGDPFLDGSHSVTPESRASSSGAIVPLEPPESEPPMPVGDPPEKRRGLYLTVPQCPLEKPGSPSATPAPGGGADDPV
T3 sequence (P47869 29-451): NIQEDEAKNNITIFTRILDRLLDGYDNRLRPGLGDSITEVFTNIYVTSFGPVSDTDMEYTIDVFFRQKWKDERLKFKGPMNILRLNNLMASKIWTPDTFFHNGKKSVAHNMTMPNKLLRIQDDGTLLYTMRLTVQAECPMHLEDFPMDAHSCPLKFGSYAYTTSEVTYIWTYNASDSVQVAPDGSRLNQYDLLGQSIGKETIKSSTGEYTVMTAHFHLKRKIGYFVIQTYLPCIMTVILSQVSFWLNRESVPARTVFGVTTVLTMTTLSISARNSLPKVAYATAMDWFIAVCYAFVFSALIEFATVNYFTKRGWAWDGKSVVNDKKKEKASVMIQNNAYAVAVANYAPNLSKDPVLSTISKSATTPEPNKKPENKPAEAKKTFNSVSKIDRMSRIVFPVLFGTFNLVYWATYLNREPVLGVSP
T3 sequence (P47870 25-512 limits assumed): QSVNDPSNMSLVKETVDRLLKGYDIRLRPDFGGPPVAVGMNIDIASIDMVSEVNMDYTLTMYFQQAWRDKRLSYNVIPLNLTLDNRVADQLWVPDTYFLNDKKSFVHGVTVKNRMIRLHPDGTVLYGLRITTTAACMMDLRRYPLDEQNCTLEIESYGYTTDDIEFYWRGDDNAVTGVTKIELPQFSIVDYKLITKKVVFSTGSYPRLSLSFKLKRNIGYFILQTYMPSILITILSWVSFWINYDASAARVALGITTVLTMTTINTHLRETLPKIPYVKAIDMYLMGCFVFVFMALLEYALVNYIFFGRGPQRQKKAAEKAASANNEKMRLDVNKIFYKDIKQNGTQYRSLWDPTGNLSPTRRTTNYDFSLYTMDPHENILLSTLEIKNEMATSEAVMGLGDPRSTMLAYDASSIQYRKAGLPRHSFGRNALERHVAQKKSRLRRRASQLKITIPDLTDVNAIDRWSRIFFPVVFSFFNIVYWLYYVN
T3 sequence (P18507 40-475): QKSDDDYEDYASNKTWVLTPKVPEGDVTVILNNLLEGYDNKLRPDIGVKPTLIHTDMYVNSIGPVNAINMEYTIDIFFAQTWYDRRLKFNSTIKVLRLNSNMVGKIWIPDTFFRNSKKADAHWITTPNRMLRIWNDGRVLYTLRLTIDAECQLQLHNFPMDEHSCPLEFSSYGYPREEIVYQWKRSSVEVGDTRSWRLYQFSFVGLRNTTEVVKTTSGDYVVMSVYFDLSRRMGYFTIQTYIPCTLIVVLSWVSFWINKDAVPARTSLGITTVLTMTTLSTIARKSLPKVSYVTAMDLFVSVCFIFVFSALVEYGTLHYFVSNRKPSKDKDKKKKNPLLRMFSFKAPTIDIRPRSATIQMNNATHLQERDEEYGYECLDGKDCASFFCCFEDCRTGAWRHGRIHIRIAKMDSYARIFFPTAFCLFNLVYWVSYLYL
T2 sequence (P14867 28-456): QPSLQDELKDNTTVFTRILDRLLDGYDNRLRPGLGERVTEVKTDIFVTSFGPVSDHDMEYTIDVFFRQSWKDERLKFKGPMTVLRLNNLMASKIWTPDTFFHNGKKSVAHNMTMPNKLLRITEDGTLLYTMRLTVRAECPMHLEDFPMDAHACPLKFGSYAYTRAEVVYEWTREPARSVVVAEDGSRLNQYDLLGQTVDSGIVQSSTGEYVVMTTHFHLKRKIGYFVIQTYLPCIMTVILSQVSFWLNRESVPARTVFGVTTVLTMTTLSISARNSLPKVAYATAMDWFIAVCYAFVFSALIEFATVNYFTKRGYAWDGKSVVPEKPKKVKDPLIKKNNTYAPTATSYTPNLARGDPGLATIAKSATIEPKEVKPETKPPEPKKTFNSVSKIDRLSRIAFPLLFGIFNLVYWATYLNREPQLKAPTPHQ
T2 sequence (P47870 25-512 limits assumed): as the sequence (P47870 25-512 limits assumed) above
T2 sequence (P18507 40-475): as the sequence (P18507 40-475) above
T4 sequence (P34903 29-492): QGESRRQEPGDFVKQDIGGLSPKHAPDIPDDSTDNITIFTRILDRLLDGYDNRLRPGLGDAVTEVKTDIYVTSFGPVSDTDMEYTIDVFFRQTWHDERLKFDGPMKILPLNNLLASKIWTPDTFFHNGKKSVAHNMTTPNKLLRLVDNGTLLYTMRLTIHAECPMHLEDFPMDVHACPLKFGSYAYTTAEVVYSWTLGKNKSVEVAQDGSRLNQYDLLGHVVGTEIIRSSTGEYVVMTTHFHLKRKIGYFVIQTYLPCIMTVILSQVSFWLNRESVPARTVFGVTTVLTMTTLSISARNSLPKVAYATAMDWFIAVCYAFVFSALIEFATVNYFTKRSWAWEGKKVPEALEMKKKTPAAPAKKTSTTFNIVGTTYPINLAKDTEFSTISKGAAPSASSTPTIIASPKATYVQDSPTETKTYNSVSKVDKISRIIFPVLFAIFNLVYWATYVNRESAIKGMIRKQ
T4 sequence (P47870 25-512 limits assumed): as the sequence (P47870 25-512 limits assumed) above
T4 sequence (P18507 40-475): as the sequence (P18507 40-475) above

`CCCC(CCC)C(=O)O` [valproic acid] was tested, and the “blocked calcium peak currents by” value ([1]; 1 mM, n=8 cells) was 66.15±2.05.

With `NC(=O)N1c2ccccc2CC(=O)c2ccccc21` [Oxcarbazepine, 10,11-dihydro-10-oxo-5H-dibenz[b,f]azepine-5-carboxamide] the “effect on hCav3.2 currents (in words)” value ([1]; up to 30 μM) was “devoid of effect”.

With `NC(=O)N1c2ccccc2C[C@@H](O)c2ccccc21` [R-licarbazepine] the “Current stimulation (%) α1β2γ2” value (α1β2γ2 GABA receptors; [3]) was 99.85 ± 1.18%, the “Current stimulation (%) α1β2γ2” value (α1β2γ2 GABA receptors; [4]) was 92.53 ± 4.53% and the “Current stimulation (%) α1β2γ2” value (α1β2γ2 GABA receptors; [5]) was 91.73 ± 4.69%. For the same compound, the “Current stimulation (%) α1β2γ2” value (α1β2γ2 GABA receptors; [6]) was 95.83 ± 6.63%, the “Current stimulation (%) α2β2γ2” value (α2β2γ2 GABA receptors; [3]) was 96.48 ± 2.11% and the “Current stimulation (%) α2β2γ2” value (α2β2γ2 GABA receptors; [4]) was 97.03 ± 2.27%. For the same compound, the “Current stimulation (%) α2β2γ2” value (α2β2γ2 GABA receptors; [5]) was 93.79 ± 3.09%, the “Current stimulation (%) α2β2γ2” value (α2β2γ2 GABA receptors; [6]) was 87.75 ± 1.94 % and the “Current stimulation (%) α3β2γ2” value (α3β2γ2 GABA receptors; [3]) was 99.53 ± 2.65%. The “Current stimulation (%) α3β2γ2” value (α3β2γ2 GABA receptors; [4]) was 100.38 ± 1.56%, the “Current stimulation (%) α3β2γ2” value (α3β2γ2 GABA receptors; [5]) was 102.94 ± 3.34% and the “Current stimulation (%) α3β2γ2” value (α3β2γ2 GABA receptors; [6]) was 97.35 ± 2.91%. The “Current stimulation (%) α5β2γ2” value (α5β2γ2 GABA receptors; [3]) was 96.13 ± 0.57%, the “Current stimulation (%) α5β2γ2” value (α5β2γ2 GABA receptors; [4]) was 94.09 ± 1.27% and the “Current stimulation (%) α5β2γ2” value (α5β2γ2 GABA receptors; [5]) was 97.24 ± 1.58%. For the same compound, the “Current stimulation (%) α5β2γ2” value (α5β2γ2 GABA receptors; [6]) was 92.25 ± 1.29%, the “effect on hCav3.2 calcium peak currents (in words)” value [1] was “dose dependently inhibited” and the “Relative current amplitude (%)” value ([1]; 0.3 μM) was 98.42 ± 1.33%. The “Relative current amplitude (%)” value ([1]; 1 μM) was 92.43 ± 1.41%, the “Relative current amplitude (%)” value ([1]; 3 μM) was 88.21 ± 1.03 % and the “Relative current amplitude (%)” value ([1]; 10 μM) was 82.92 ± 1.29 %. For the same compound, the “Relative current amplitude (%)” value ([1]; 30 μM) was 78.21 ± 2.14 %, the “Relative current amplitude (%)” value ([1]; 50 μM) was 73.86 ± 3.78 % and the “Relative current amplitude (%)” value ([1]; 100 μM) was 71.61 ± 1.68 %. For the same compound, the “Relative current amplitude (%)” value ([1]; 250 μM) was 64.52 ± 3.05 %, the “Relative current amplitude (%)” value ([1]; 500 μM) was 58.10 ± 2.74 % and the “Relative current amplitude (%)” value ([1]; 1000 μM) was 39.37 ± 5.33 %. The IC50 ([1]; high affinity fit, read-out: hCav3.2 IC50 (μM) High affinity) was 6.54 µM, the IC50 ([1]; low affinity fit, read-out: hCav3.2 IC50 (μM) Low affinity) was 883 µM and the “effects upon sub-maximal GABA currents (in words)” value [2] was “devoid of effects”.

In the case of `Cc1ncc2n1-c1ccc(Cl)cc1C(c1ccccc1F)=NC2` [Midazolam], the “Current stimulation (%) α1β2γ2” value (α1β2γ2 GABA receptors; 3 μM with GABA at EC5, Ltk cells) is reported as 184.81 ± 32.93 %.

From patent publication US9750747B2, “Treatments involving eslicarbazepine acetate or eslicarbazepine” (BAIL-PORTELA & CA, S.A., priority 2011, dated 2017)
